Values joined by “and” are separate entries in the source; they are usually repeats but may differ in a detail not shown here. Equal entries are not always repeated. Structures can show the parent of a compound that is named as a salt. Where two headings read alike, the source gives them in different places. A value given as a limit tells only on which side of the number the result lay.

The test system of one experiment is SUDHL5. The experiment in a line: Anti-proliferative effect in SUDHL5 cells, CellTiter-Glo (Assay 7). The class given is cell-based. An outline of the steps: (§1)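 Overnight seeding at 37 °C, then 72 h treatment with compound; day 0 plate read at start. Luminescent ATP-based viability readout (CellTiter-Glo). IC50 normalised between day 0 and DMSO values.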
(In general: In ATP-based viability assays light output follows the ATP content of the culture.)

A further experiment has as its target MCL-1 (Homo sapiens, UniProt Q07820, K194A/K197A/R201A). Nature of the experiment: Protein-compound interaction assay, surface plasmon resonance (SPR assay, Assay 8). The class given is binding. The source says: Protein-Compound Interaction Assay (SPR Assay)
The ability of the compounds described in this invention to bind to MCL-1 may be determined using surface plasmon resonance (SPR). This allows for the quantification of binding in terms of the equilibrium dissociation constant (KD [M]), as well as association and dissociation rate constants (kon [1/M 1/s] and koff [1/s], respectively). The measurements may be performed using Biacore® T200 or Biacore® S200 instruments (GE Healthcare).
Briefly, carboxymethylated dextran biosensor chips (Series S Sensor Chip CM5, GE Healthcare) were activated with 1-ethyl-3-(3-dimethylaminopropyl)-carbodiimide hydrochloride (EDC) and N-hydroxysuccinimide (NHS) according to the supplier's instructions. MBP-MCL-1 was diluted in 1×PBS-P+ (GE Healthcare) and injected on the activated chip surface. Subsequently, a solution of 1 M ethanolamine-HCl (GE Healthcare) was injected to block unreacted groups, resulting in approximately 400-2500 response units (RU) of immobilized protein. A reference surface was generated by treatment with NHS-EDC and ethanolamine-HCl. […] Compounds were injected for 60 s followed by a dissociation time of up to 1000 s.
The double-referenced sensorgrams were fit to a simple reversible Langmuir 1:1 reaction mechanism as implemented in the Biacore® T200 and S200 evaluation software (T200 evaluation software version 2.0 and S200 evaluation software version 1.0, GE Healthcare).
(In general: SPR reads the build-up and loss of mass on a sensor chip optically.)

The next experiment concerns the target BCL-XL (Homo sapiens, UniProt Q07817). Nature of the experiment: Protein-protein interaction assay BCL-XL/Bad BH3 peptide, TR-FRET (BCL-XL assay, Assay 2). The class given is binding. Conditions: His-BCL-XL / Bad BH3 peptide, median. A general note: In TR-FRET formats the signal depends on donor and acceptor labels being close together.
The target of another experiment is T1, MCL1 protein (Homo sapiens, UniProt Q07820).
T1 construct: this assay uses full length endogenous MCL1 protein at mitochondria outer membrane; endogenous in cells; host or cells: RKO colon cancer cell line
The experiment in a line: PIxEL: protein-protein interaction in permeabilized cells by ELISA (Assay 5). The class given is cell-based. Conditions: permeabilized RKO cells, biotin-BIM BH3 peptide 0.2 μM, serum free. As to the method:
PIxEL: Protein-Protein Interaction in Permeabilized Cells by ELISA
Most MCL1 protein molecules are localized at the mitochondria outer membrane and sequester pro-apoptotic proteins through binding of their BCL2 homology domain 3 (BH3 domain). MEB buffer (150 mM mannitol, 10 mM HEPES pH 7.5, 50 mM KCl, 20 μM EDTA, 20 μM EGTA, 5 mM potassium succinate, 0.1% protease-free BSA (SIGMA) with low dose digitonin (0.002%) permeabilizes plasma membrane while leaves live mitochondria, where MCL1 maintains its native localization and conformation. Unlike biophysical assays (e.g. TR-FRET) that use truncated recombinant MCL1 protein, this assay uses full length endogenous MCL1 protein at mitochondria outer membrane. It measures the interaction between MCL1 protein and biotinylated BIM BH3 peptide. Compounds can compete with BIM BH3 peptide to bind to MCL1 protein.
On day 1, RKO colon cancer cell line cells were plated at 0.8 million cells/ml, 100 μl/well in 96-well flat bottom TC plates (Corning). […] Each plate was tapped to make sure liquid covering entire bottom of wells and incubate at 37° C. overnight.
On the second day, MCL1 antibody was washed from ELISA plate. 250 μl Odyssey® Blocking Buffer (PBS) (Li-Cor) was added to each well, incubated at room temperature for at least 1 hour, then washed once with 250 μl 1×PBST. Plates with RKO cells were gently washed once with 100 μl/well PBS, once with 100 μl/well MEB buffer without digitonin, then 100 μl of MEB buffer with 0.002% digitonin was gently added to each well. Compounds were added with HP Tecan compound dispenser in 3-fold dilution series, highest dose 30 μM, 10-dose per compound in quadruplicates. Biotin-BIM peptide (synthesized by 21st Century) was added with HP Tecan compound dispenser at 0.2 μM immediately after the addition of compounds. Plates were rocked for 1 h at room temperature. Then MEB buffer was aspirated and 50 μl of CHAPS buffer (50 mM Tris-Cl, pH 7.4, 150 mM NaCl, 1% CHAPS, 1 mM EDTA, 1 mM EGTA, complete protease inhibitors (Roche), PhosSTOP (Roche)) was added to each well. Plates were rocked for 1 hour at 4° C., then 45 μl cell lysate from each well were transferred to ELISA plates coated with MCL1 antibody. Plates were incubated overnight in the cold room with rocking.
On the third day, ELISA plates were washed once with 250 μl 1×PBST. Streptavidin-poly-HRP (Thermo Fisher Scientific) was diluted to 20 ng/ml in Odyssey blocking buffer plus 0.05% Triton-100, and 100 μl was added to each well of the ELISA plate. Plates were incubated at RT for 1 hour with rocking, then washed with 100 μL 1×PBST for 3 times. Each SuperSignal ELISA Femto Maximum Sensitivity substrate was added to a 50-ml tube and mixed, then 100 μl of mixed substrate was added to each well. Plates were shaken for 1 minute then luminescence was measured by Envision plate reader […]. Signal of each well were normalized by no-compound control and no-cell control. IC50 was calculated using Graphic Pad PRISM software.

A further experiment has as its system A2780. The experiment in a line: Anti-proliferative effect in A2780 cells, CellTiter-Glo (Assay 7). The class given is cell-based. Conditions: several values per example. An outline of the steps: as §1
The next experiment relates to SUDHL10. Nature of the experiment: Anti-proliferative effect in SUDHL10 cells, CellTiter-Glo (Assay 7). Conditions: SUDHL10, 72 hours incubation, median, read-out: Antiproli SUDHL10 [M] (median). The class given is cell-based. As to the method: Assessment of the Anti-Proliferative Effect of Compounds in Different Cell Lines
The impact of compounds on the proliferation of different cell lines was assessed using the CellTiter-Glo® Luminescent Cell Viability reagent from Promega (G7573).
In parallel, cells were plated in a reference (day 0) plate for time zero determination. Cells were incubated in a humidified incubator at 37° C. overnight.
Rim wells were excluded. The cells were incubated for 72 hours in a humidified incubator at 37° C. The day 0 plate was measured by adding 30 μL/well of CTG solution (CellTiter-Glo® Luminescent Cell Viability reagent, Promega G7573) to time zero wells in the reference plate followed by a 10 minutes incubation and luminescence reading at 0.1 ms. using the PHERAstar FS microplate reader (BMG Labtech).
After 72 hours incubation, the treated plates were measured in the same way as the day 0 plate mentioned above. The Bella DRC Master Sheet was used to calculate IC50s, with CI=day 0 values and C0=DMSO control values.

The mark [1] stands for this setting: Homo sapiens, SU-DHL-5, 72 h, SUDHL5, 72 hours incubation, CellTiter-Glo, median, read-out: Antiproli SUDHL5 [M] (median).
Setting [2] is: KD [M], SPR, immobilized MBP-MCL-1, 25° C., geometric mean.
Where [3] appears, read: read-out: koff [1/s], SPR, immobilized MBP-MCL-1, 25° C., geometric mean.
Setting [4] is: read-out: kon [1/M 1/s], SPR, immobilized MBP-MCL-1, 25° C., geometric mean.
Where [5] appears, read: SUDHL5, 72 hours incubation, CellTiter-Glo, median, read-out: Antiproli SUDHL5 [M] (median).
Where [6] appears, read: A2780, 72 hours incubation, CellTiter-Glo, read-out: Antiproli A2780.
[7] abbreviates: SPR, immobilized MBP-MCL-1, 25° C., geometric mean.

MCL-1, sequence (Q07820 173-321 K194A/K197A/R201A, looked up): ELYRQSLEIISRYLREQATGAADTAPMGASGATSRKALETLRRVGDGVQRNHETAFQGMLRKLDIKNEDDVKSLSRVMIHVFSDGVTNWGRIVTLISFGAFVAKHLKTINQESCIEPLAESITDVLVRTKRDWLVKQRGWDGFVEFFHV
T1 sequence (Q07820 whole entry): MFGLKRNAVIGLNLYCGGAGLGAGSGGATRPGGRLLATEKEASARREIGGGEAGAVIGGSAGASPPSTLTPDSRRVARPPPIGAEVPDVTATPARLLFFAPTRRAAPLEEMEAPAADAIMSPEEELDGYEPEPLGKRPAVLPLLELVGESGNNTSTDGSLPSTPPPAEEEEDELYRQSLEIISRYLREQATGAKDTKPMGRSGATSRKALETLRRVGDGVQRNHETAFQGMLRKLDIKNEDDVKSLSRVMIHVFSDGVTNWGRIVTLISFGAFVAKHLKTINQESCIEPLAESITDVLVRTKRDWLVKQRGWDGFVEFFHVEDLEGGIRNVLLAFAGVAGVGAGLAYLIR
BCL-XL, sequence (Q07817 1-212): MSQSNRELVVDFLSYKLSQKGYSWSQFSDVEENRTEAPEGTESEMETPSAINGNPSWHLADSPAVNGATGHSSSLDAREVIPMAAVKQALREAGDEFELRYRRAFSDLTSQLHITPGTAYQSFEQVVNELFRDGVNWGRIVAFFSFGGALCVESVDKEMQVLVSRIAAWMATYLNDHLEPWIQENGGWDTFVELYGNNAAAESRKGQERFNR
Protocol for BCL-XL: Protein-Protein Interaction Assay: BCL-XL/Bad BH3 Peptide (BCL-XL Assay)
The dose-dependent inhibition by the compounds described in this invention of the interaction between BCL-XL and the BH3 domain of Bad (both human) was determined using a steady state binding competition assay with time-resolved fluorescence energy transfer (TR-FRET) readout. For that purpose BCL-XL (amino acids 1-212, C-terminal fused to a hexahistidine (6×His) tag (SEQ ID 3) and a synthetic Bad BH3-derived peptide of sequence Biotin-PEG2-PEG2-[sequence]-Nle-[sequence]-amide (SEQ ID 4) served as protein receptor and tracer ligand respectively. The recombinant BCL-XL protein (expressed in E. coli) was purchased from BPS Bioscience (San Diego, Calif., USA). The Bad BH3-derived peptide can be obtained from e.g. Biosyntan (Berlin, Germany).
For that, 100-fold concentrated DMSO solutions were prepared by serial dilutions (1:3.4) of a 2 mM stock solution in a clear, 384-well microtiter plate (Greiner Bio-One, Frickenhausen, Germany). From there, 50 nl were transferred in a dark test plate (Greiner Bio-One, Frickenhausen, Germany). The assay was initiated by addition of 2 μl of a 2,5-fold concentrated His-BCL-XL solution (usually for a 1 nM end concentration in 5 μl reaction volume) in aqueous assay buffer [50 mM Tris/HCl pH 7, 100 mM sodium chloride (NaCl), 50 mM potassium fluoride (KF), 0.005% Tween-20, 2 mM DTT, 0.1% bovine gamma globulin (BGG)] to the compounds in the assay plate. This was followed by a 10-minute incubation step at 22° C. for pre-equilibration of the putative complex between His-BCL-XL and the compounds.
The mixture was incubated in the dark for one hour at 22° C. and then overnight at 4° C. The formation of BCL-XL/Bad complexes was determined by measuring the resonance energy transfer of the anti-His- Eu-cryptate antibody to the streptavidin-XL665 present in the reaction. For that purpose, the fluorescence emission at 620 nm and 665 nm after excitation at 330-350 nm was measured in a TR-FRET measuring instrument, for instance a Rubystar or a Pherastar (both from BMG Lab Technologies, Offenburg, Germany) or a Viewlux (Perkin-Elmer). The ratio of the emission at 665 nm and at 622 nm was used as indicator of the amount of BCL-XL/Bad complexes present.
The resulting data (ratio) were normalized, taking 0% inhibition as the mean value of control measurements (usually 32 data points) where all reagents were included. In this case 50 nl DMSO were used instead of compounds. […] IC50 values were determined by regression analysis based on a 4 parameter equation (minimum, maximum, IC50, Hill; Y=Max+(Min−Max)/(1+(X/IC50)^Hill) using the Screener Software (Genedata).

Turning to `Cc1c2c(nn1C)COCc1ccccc1Cn1c(C(=O)O)c(CCCOc3cccc4cc(F)ccc34)c3ccc(Cl)c-2c31` (racemic) [Example 48, (rac)-3-Chloro-17-{3-[(6-fluoronaphthalen-1-yl)oxy]propyl}-4,5-dimethyl-5,7,9,14-tetrahydroindolo[7,1-fg]pyrazolo[3,4-d][2,8]benzoxazacycloundecine-16-carboxylic Acid], the IC50 with SUDHL5 (setting [1]) amounted to 1.6e-06 M. In addition, at MCL-1 (setting [2]), the Kd was found to be 8e-09 M. The koff on MCL-1 (setting [3]) stood at 0.006 s⁻¹. Also, at MCL-1 (setting [4]), the kon was found to be 750000 M⁻¹ s⁻¹.

Consider `Cc1c2c(nn1C)COCc1ncccc1Cn1c(C(=O)O)c(CCCOc3cccc4ccccc34)c3cccc-2c31` (single isomer, unassigned; enantiomer 1) [Example 8, 4,5-Dimethyl-17-[3-(naphthalen-1-yloxy)propyl]-5,7,9,14-tetrahydropyrazolo[4′,3′:9,10]-pyrido[2′,3′:3,4][1,6]oxazacycloundecino[8,7,6-hi]indole-16-carboxylic acid-N-ethylethanamine Salt (Enantiomer 1)], for which the IC50 was over 20000 nM against BCL-XL, 1.82e-05 M against MCL1 protein (PIxEL [M] (median)) and 3.2e-06 M with SUDHL5 (setting [5]). Moreover, the Kd at MCL-1 (setting [2]) is 3.4e-09 M.

Regarding `Cc1c2c(nn1C)COCc1ccccc1Cn1c(C(=O)O)c(CCCOc3cccc4ccccc34)c3ccc(Cl)c-2c31` (single isomer, unassigned; enantiomer 1) [Example 37, (−)-3-Chloro-4,5-dimethyl-17-[3-(naphthalen-1-yloxy)propyl]-5,7,9,14-tetrahydroindolo[7,1-fg]pyrazolo[3,4-d][2,8]benzoxazacycloundecine-16-carboxylic Acid (Enantiomer 1)], the IC50 against BCL-XL was over 20000 nM; against MCL1 protein (PIxEL [M] (median)) it was 1.61e-06 M. Also, the dissociation constant (Kd) at MCL-1 (setting [2]) came out at 4.7e-09 M. For the same compound, on MCL-1 (setting [3]), the koff came to 0.011 s⁻¹. At MCL-1 (setting [4]), the kon is 2.4e+06 M⁻¹ s⁻¹.

With `CCc1nn(CCN2CCOCC2)c2c1-c1c(Cl)ccc3c(CCCOc4cccc5cc(F)ccc45)c(C(=O)O)n(c13)Cc1ccccc1COC2` (single isomer, unassigned; enantiomer 1) [Example 52, (−)-3-Chloro-4-ethyl-17-{3-[(6-fluoronaphthalen-1-yl)oxy]propyl}-6-[2-(morpholin-4-yl)ethyl]-6,7,9,14-tetrahydroindolo[7,1-fg]pyrazolo[3,4-d][2,8]benzoxazacycloundecine-16-carboxylic Acid (Enantiomer 1)], the IC50 is over 20000 nM against BCL-XL; 3.68e-07 M at MCL1 protein (median, read-out: PIxEL [M] (median)); 5.7e-07 M in the experiment with SUDHL5 (setting [5]); 2.41e-06 M with A2780 (setting [6]). Further, the Kd on MCL-1 (SPR, immobilized MBP-MCL-1, 25° C., geometric mean, read-out: KD) turned out to be 1.5e-09 M. For the same compound, the koff at MCL-1 (read-out: koff [1/s]) stood at 0.024 s⁻¹. On MCL-1 (read-out: kon [1/M 1/s]), the kon is 1.6e+07 M⁻¹ s⁻¹.

Consider `Cc1c2c(nn1C)COCc1ccccc1Cn1c(C(=O)O)c(CCCOc3cccc4cc(F)ccc34)c3ccc(F)c-2c31` (single isomer, unassigned; enantiomer 1) [Example 65, (−)-3-fluoro-17-{3-[(6-fluoronaphthalen-1-yl)oxy]propyl}-4,5-dimethyl-5,7,9,14-tetrahydroindolo[7,1-fg]pyrazolo[3,4-d][2,8]benzoxazacycloundecine-16-carboxylic acid-N-ethylethanamine Salt (Enantiomer 1)], for which the IC50 on BCL-XL was over 20000 nM; against MCL1 protein (PIxEL [M] (median)), 1.04e-06 M; with SUDHL5 (setting [1]), 1.1e-06 M; in the experiment on A2780 (Homo sapiens, A2780, 72 h, A2780, 72 hours incubation, CellTiter-Glo, read-out: Antiproli A2780), 1.01e-05 M. Besides, on MCL-1 (setting [2]), the dissociation constant (Kd) turned out to be 1.4e-09 M. Also, the koff on MCL-1 (setting [3]) turned out to be 0.011 s⁻¹. Further, the kon on MCL-1 (setting [4]) was found to be 8e+06 M⁻¹ s⁻¹.

As for `Cc1c2c(nn1C)COCc1ccccc1Cn1c(C(=O)O)c(CCCOc3cccc4ccccc34)c3ccc(F)c-2c31` (single isomer, unassigned; enantiomer 1) [Example 68, (−)-3-Fluoro-4,5-dimethyl-17-{3-[(naphthalen-1-yl)oxy]propyl}-5,7,9,14-tetrahydroindolo[7,1-fg]pyrazolo[3,4-d][2,8]benzoxazacycloundecine-16-carboxylic acid-N-ethylethanamine Salt (Enantiomer 1)], the IC50 against BCL-XL is over 20000 nM; against MCL1 protein (PIxEL [M] (median)), 2.16e-06 M; in the experiment on SUDHL5 (read-out: Antiproli SUDHL5 [M] (median), SUDHL5, 72 hours incubation, CellTiter-Glo), 1.4e-06 M; in the experiment on A2780 (Homo sapiens, A2780, 72 h, read-out: Antiproli A2780 [M], A2780, 72 hours incubation, CellTiter-Glo) it was 2.9e-05 M.

For the compound `Cc1c2c(nn1C)COCc1ccccc1Cn1c(C(=O)O)c(CCCOc3cccc4cc(F)ccc34)c3ccc(Cl)c-2c31` (single isomer, unassigned; enantiomer 2) [Example 50, (+)-3-Chloro-17-{3-[(6-fluoronaphthalen-1-yl)oxy]propyl}-4,5-dimethyl-5,7,9,14-tetrahydroindolo[7,1-fg]pyrazolo[3,4-d][2,8]benzoxazacycloundecine-16-carboxylic acid-N-ethylethanamine Salt (Enantiomer 2)], the IC50 on MCL1 protein (PIxEL [M] (median)) was 1.69e-06 M; in the experiment with SUDHL5 (setting [5]), 1.5e-06 M; in the experiment with SUDHL10, 1.2e-06 M; with A2780 (setting [6]) it was 1.17e-05 M and 8.65e-06 M. In addition, binding on MCL-1 (setting [2]) was characterised by a dissociation constant (Kd) of 3.8e-09 M. Also, the “koff” value on MCL-1 (setting [7]) is 0.0061 s⁻¹. The “kon [1/M 1/s]” value at MCL-1 (setting [7]) is given as 1.6E6 1/M 1/s.

For orientation: Kd means the concentration at which binding is half-saturated.

Values taken from patent publication US20210253598A1, “ARYL ANNULATED MACROCYCLIC INDOLE DERIVATIVES” (priority 2017, published 2021).
